Experimental data taken from patent publication US5854010A, “Bioassay for detecting 2,3,7,8-tetrachlorodibenzo-para-dioxin and TCDD-like compounds and novel recombinant cell line useful therefor” (priority 1997, dated 1998).
pEC50: −log10 of the molar value.

Tests used:
[1] = tested on: mouse hepatoma Hepa1c1c7 cells (wild type); assay: TCDD-inducible luciferase activity, transient transfection with pGudLuc1.0 (lacks DREs); type: cell-based
Experimental: (§1) In general, the expression vectors pGudLuc1.0 and pGudLuc1.1 were prepared as follows. A 1330-bp HindIII fragment or an 1810-bp HindIII fragment isolated from the plasmid, pMpap1.0 or pMpap1.1, respectively (see, El-Fouly et al., supra), was subcloned into the HindIII site immediately upstream of the luciferase gene in the plasmid pGL2-basic (purchased from Promega).
More specifically, the following cells were obtained from the source indicated. Wild-type and AhR-defective (BPRc1 and TAO, respectively) mouse hepatoma (Hepa1c1c7) cells (Hepa1), derived from a C57B1 mouse liver tumor, were obtained from J. P. Whitlock, Jr. (Stanford University). These cells were grown as previously described by Miller et al. in "Biochemical and Genetic Analysis of Variant Mouse Hepatoma Cells Defective in the Induction of Benzo(a)pyrene Metabolizing Enzyme Activity", J. Biol. Chem., Vol. 258, pp. 3523-3527 (1983). […]
(§2) Using the stabilized luciferase assay system (purchased from Promega), luciferase activity in an aliquot of the cleared lysed cell supernatant (20 μl) was determined by mixing it with 100 µl of luciferase assay reagent (purchased from Promega) and measuring the resulting luminescence in a Turner Luminometer or Dynatech ML3000 microplate luminometer (light output was integrated over 1 minute after a delay time of 30 seconds).
(§3) Using a microplate adaptation of the method reported by Bradford in "A Rapid Sensitive Method for the Quantitation of Microgram Quantities of Protein Utilizing the Principle of Protein-Dye Binding", Anal. Biochem., […], pp. 248-254 (1976), luciferase activity was standardized to the protein concentration of the supernatant (with bovine serum albumin as the protein standard). Because of instrument differences in luminescence measurement and data output, luciferase activity was determined as relative light units (RLU) per microgram of protein, which was converted to milligram of protein as reported in the Tables below.

[2] = tested on: human hepatoma HepG2 cells; assay: TCDD-inducible luciferase activity, transient transfection with pGudLuc1.1; type: cell-based
Experimental: as §1
More specifically, the following cells were obtained from the source indicated. Wild-type and AhR-defective (BPRc1 and TAO, respectively) mouse hepatoma (Hepa1c1c7) cells (Hepa1), derived from a C57B1 mouse liver tumor, were obtained from J. P. Whitlock, Jr. (Stanford University). These cells were grown as previously described by Miller et al. in "Biochemical and Genetic Analysis of Variant Mouse Hepatoma Cells Defective in the Induction of Benzo(a)pyrene Metabolizing Enzyme Activity", J. Biol. Chem., Vol. 258, pp. 3523-3527 (1983). Additionally, mouse hepatoma (MLE/BV) cells, derived from a spontaneously immortalized C3H/HeN mouse liver cell, were obtained from B. V. Madhukar (Indiana University School of Medicine, Indianapolis, Ind.) and were grown as described for the Hepa1 cells. Rat hepatoma (H4IIe) cells, guinea pig intestinal adenocarcinoma (GPC16) cells, hamster lung (AHL) cells, human hepatoma (HepG2) cells, human breast tumor (MCF7) cells, and human intestinal epithelial (LS180) cells were obtained from the American Type Culture Collection (Rockville, Md.). Until transfection, all of the cells were maintained according to their respective cell-type-specific culture protocols.
Transfection was accomplished as follows. Using polybrene as previously described by Helferich et al. in "Photooxidized Products of Tryptophan Can Act as Dioxin Agonists", Mol. Pharmacol., Vol. 40, pp. 674-678 (1991), plates of cells (approximately 80% confluent) were transiently transfected with the desired plasmid (15 μg). Then, the transfected cells were allowed to grow for 48 hours, followed by the addition of either DMSO (1 μl/ml) or TCDD (1 nM) solubilized in DMSO, which was followed by incubation for 24 hours. Next, the plates were transferred onto ice, and the media were removed, after which the plates were rinsed twice with cold PBS. Then, 200 μl of luciferase lysis buffer (purchased from Promega) was used to lyse the cells. The lysed cell samples were collected and transferred into a microfuge tube. Cell debris was pelleted by centrifugation, and the supernatants were collected. The supernatant samples were assayed for TCDD-inducible luciferase activity in the following manner.
as §2, §3

[3] = tested on: H4L1.1c4 cells; assay: TCDD-inducible luciferase activity, stably transfected clonal cell line; type: cell-based, rat; conditions: 24 h
Experimental: as §2
as §3, with “below. […]” for “below.”
More particularly, isolated clones were grown until confluent, and then incubated in the absence or presence of TCDD (1 nM solubilized in DMSO) for 24 hours. After the incubation, luciferase activity was determined as described above.

[4] = tested on: mouse H1L1.1 cells; assay: Luciferase induction by TCDD in DMSO or serum, 96-well, 4 h; detection limits (FIG. 8); type: cell-based
Experimental: Specifically, since it is desired to utilize the present bioassay system directly to detect PAHs in samples without the need for solvent extraction and concentration, the dose-dependence of luciferase induction in cells incubated with increasing concentrations of TCDD in serum versus that observed with increasing concentrations of TCDD in DMSO was examined. In other words, the present bioassay system should be advantageously employed directly with a sample of serum from an animal or human, where the sample may contain TCDD or other PAHs and the serum is the solvent, whereby solvent extraction of the sample with DMSO as the solvent is unnecessary.
The cells were incubated with the respective increasing concentrations of TCDD for 4 hours and luciferase activity of cell lysates determined as follows. […]
After incubation for an additional 15 minutes, luciferase activity in the lysed cells was determined. Luciferase activity was sensitively measured using its bioluminescent substrate, luciferin in a Dynatech ML3000 microplate luminometer. In these experiments, cells either kept intact or lysed using luciferase lysis buffer (purchased from Promega) and luciferase activity in an aliquot of the lysate was determined by automatic injection of assay reagent and measurement of the resulting bioluminescence.

[5] = tested on: Mouse T13 cells (recombinant Hepa1), alkaline phosphatase; conditions: Table 3 comparison, El-Fouly et al.; read-out: ED50 (the source's name); cited from earlier work

SMILES: Clc1cc2c(cc1Cl)Oc1cc(Cl)c(Cl)cc1O2 [TCDD, 2,3,7,8-tetrachlorodibenzo-para-dioxin]
- Luciferase activity, TCDD in DMSO ([1]; Luc1.0, TCDD 1 nM, 24 h, mean of triplicate transfections): 0.1 RLU/mg protein
- fold induction at 0.001 µM ([1]; Mus musculus, Hepa-1c1c7, Luc1.0, TCDD 1 nM vs DMSO): 1
- Induction of luciferase activity ([1]; pGudLuc1.0, TCDD 1 nM): failed to induce luciferase activity
- fold induction ([2]; Homo sapiens, HepG2, Luc1.1, TCDD 1 nM vs DMSO): 66.3
- Luciferase activity, TCDD in DMSO ([2]; Luc1.1, TCDD 1 nM, 24 h): 690 RLU/mg protein
- fold induction ([3]; Rattus norvegicus, TCDD 1 nM vs DMSO): 25
- Luciferase activity, TCDD in DMSO ([3]; TCDD 1 nM, mean ± SD of triplicate assays): 0.49 ± 0.03 RLU/mg protein
- Relative potency (ED50) for luciferase induction, TCDD-serum versus TCDD-DMSO [4]: significantly lower for the TCDD-serum sample than for the TCDD-DMSO sample
- Induction of luciferase by TCDD-containing serum ([4]; TCDD in serum): dose-dependent manner
- pEC50 [5]: 9.46
